Assay results published in EP4271680B1, “GOLD (I) COMPLEXES WITH FLUORINATED N-HETEROCYCLIC CARBENE LIGANDS AND USE THEREOF AS THERAPEUTIC AGENTS” (priority 2020, dated 2022).
Like-named read-outs stand apart in the source and are kept apart here.

Legend:
lignée cellulaire Thp1 = test: Cytotoxicity by MTT test on Thp1 cell line; type: cell-based, humains
Method: (§1) L'évaluation de la cytotoxicité des complexes selon l'invention par test MTT sur la lignée cellulaire Thp1 (lignée cellulaire de monocytes humains) a été réalisée selon Mosmann avec de légères modifications. En bref, les cellules (0,77.10^5 cellules/ml) dans 200 µL du milieu complet [RPMI 1640 supplémenté avec 10% de sérum de veau fœtal (FCS), 2 mM de L-glutamine et des antibiotiques (100 U/ml) pénicilline et 100 µg/ml de streptomycine)]+ PMA (50 ng/ml) ont été ensemencées dans chaque puits de plaques à 96 puits et incubées à 37°C sous atmosphère humidifiée à 5% de CO2 avec 95% d'air. Après une incubation de 96 h, les plaques ont été lavées 3 fois avec du milieu et 100 µl de milieu ont été ajoutés. Diverses concentrations et contrôles appropriés ont ensuite été ajoutés (100 µl) et les plaques ont été incubées pendant 72 h à 37°C.
(§2) Chaque puits a ensuite été examiné au microscope pour détecter la formation possible de précipité avant l'aspiration du milieu. Une solution de MTT (0,5 mg/ml dans du RPMI, 100 µl) a ensuite été ajoutée à chaque puits. Les cellules ont été incubées pendant 2 h à 37°C. La solution de MTT a ensuite été éliminée et du DMSO (100 µl) a été ajouté pour dissoudre les cristaux de formazan résultants. Les plaques ont été secouées vigoureusement (300 tr/min) pendant 5 min.
(§3) L'absorbance a été mesurée à 570 nm avec un spectrophotomètre pour microplaques. Le DMSO a été utilisé comme blanc et la doxorubicine (Sigma Aldrich) comme contrôle positif. Les CC50 ont été calculés par analyse de régression non linéaire traitée sur des courbes dose-réponse, à l'aide du logiciel TableCurve 2D V5.

[1] = system: amastigotes axéniques de L. infantum; test: Anti-leishmanial activity on axenic amastigotes of L. infantum (luciferase luminescence)
[2] = Cytotoxicity by MTT test on Thp1 cell line; type: cell-based, humains; conditions: human
Method: as §1, §2, §3

[3] = Leishmania infantum, read-out: Amastigotes axéniques de L. infantum CI50, Tableau 2, mean of three independent experiments
[4] = Tableau 2, CC50 Thp1 / CI50 axenic amastigotes of L. infantum
[5] = Leishmania infantum, read-out: Amastigotes axéniques de L. infantum CI50
[6] = Tableau 2, 72 h incubation, mean of three independent experiments, read-out: Thp1 CC50
[7] = Tableau 3, separate experiments, mean of three independent experiments, read-out: Thp1 CC50
[8] = read-out: CC50 sur la lignée cellulaire humaine Thp1
[9] = Leishmania infantum, read-out: Amastigotes axéniques de L. infantum CI50, Tableau 3, separate experiments, mean of three independent experiments
[10] = Tableau 3, separate experiments, CC50 Thp1 / CI50 axenic amastigotes

| Compound | Indice de sélectivité CC50/IC50 SI [1, 4] | IC50 [1, 5] [µM] | also measured |
| --- | --- | --- | --- |
| FC(F)(F)c1cc(-n2cc[n+](-c3ccc4ccccc4n3)c2)cc(C(F)(F)F)c1 [compound 17, Chlorurede 1-(3,5-Bis(trifluoromethyl)phenyl)-3-(quinolin-2-yl)-1H-imidazol-3-ium] | 3,07 | – | toxicité (in words) (lignée cellulaire Thp1): plutôt toxique; IC50 [1, 3]: 14.5 µM; activité anti-leishmanienne (in words) ([1]; axenic amastigotes of L. infantum): modérément actif |
| FC(F)(F)c1ccc(-n2cc[n+](-c3ccc4ccccc4n3)[c]2[Au-][Cl])cc1 [Complexe 35] | 130,05 | – | – |
| CC(=O)OCC1OC([S][Au-][c]2n(-c3cccc(OC(F)(F)F)c3)cc[n+]2Cc2ccccc2)C(OC(C)=O)C(OC(C)=O)C1OC(C)=O (centres unmarked) [Complexe 38] | 23,15 | – | – |
| FC(F)(F)c1cc(-n2cc[n+](Cc3ccccc3)[c]2[Au-][Cl])cc(C(F)(F)F)c1 [Complexe 22] | 47,09 | – | – |
| FC(F)(F)c1ccc(-n2cc[n+](-c3ccc4ccccc4n3)c2)cc1 [compound 20] | – | > 50 | – |
| CC(C)[n+]1ccn(-c2cc(C(F)(F)F)cc(C(F)(F)F)c2)[c]1[Au-][Cl] [Complexe 27] | 119,72 | – | – |
| FC(F)(F)Oc1ccc(-n2cc[n+](-c3ccc4ccccc4n3)[c]2[Au-][Cl])cc1 [Complexe 31] | 136,42 | – | – |
| N=C(N)c1ccc(OCCCCCOc2ccc(C(=N)N)cc2)cc1 [Pentamidine, reference compound] | >4,74 | – | CC50 at 72 h [2, 6]: > 50 µM; CC50 at 72 h [2, 7]: 65.9 ± 7.49 µM; CC50 at 72 h [2, 8]: > 50 µM; IC50 [1, 3]: 10.5 µM; IC50 [1, 9]: 1.36 µM; Indice de sélectivité CC50/IC50 SI ([1]; Tableau 2, CC50 Thp1 / CI50 axenic amastigotes of L. infantum, listed as pentamidine): > 4,74; Indice de sélectivité CC50/IC50 SI [1, 10]: 48.43 |
| FC(F)(F)Oc1cccc(-n2cc[n+](Cc3ccccc3)[c]2[Au-][Cl])c1 [Complexe 23] | 62,55 | – | – |
| CC(C)[n+]1ccn(-c2cc(C(F)(F)F)cc(C(F)(F)F)c2)c1 [compound 12, Bromurede 1-(3,5-Bis(trifluorométhyl)phényl)-3-isopropyl-1H-imidazol-3-ium] | – | > 50 | – |
| FC(F)(F)c1cc(-n2cc[n+](Cc3ccccc3)c2)cc(C(F)(F)F)c1 [compound 7, Chlorurede 3-Benzyl-1-(3,5-bis(trifluoromethyl)phenyl)-1H-imidazol-3-ium] | – | – | IC50 ([1]; read-out: Amastigotes axéniques de L. infantum CI50, Tableau 2, mean of three independent experiments): > 50 µM |
| CC(C)[n+]1ccn(-c2ccc(OC(F)(F)F)cc2)[c]1[Au-][Cl] [Complexe 26] | 118,53 | – | – |
| FC(F)(F)c1ccc(-n2cc[n+](Cc3ccccc3)c2)cc1 [compound 10, Chlorurede 3-Benzyl-1-(4-(trifluoromethyl)phenyl)-1H-imidazol-3-ium chloride] | – | > 50 | – |
| COc1cccc2c1C(=O)c1c(O)c3c(c(O)c1C2=O)C[C@@](O)(C(=O)CO)C[C@@H]3O[C@H]1C[C@H](N)[C@H](O)[C@H](C)O1 [Doxorubicine] | – | – | CC50 at 72 h [2, 6]: 0.7 µM; CC50 at 72 h [2, 7]: 0.7 µM |
| CCCCCCCCCCCCCCCCOP(=O)([O-])OCC[N+](C)(C)C [Miltéfosine, reference compound] | 49,32 | – | CC50 (lignée cellulaire Thp1; [7]): 35 µM; CC50 (lignée cellulaire Thp1; [8]): 35 µM; IC50 [1, 3]: 0.71 µM; IC50 [1, 9]: 0.46 µM; Indice de sélectivité CC50/IC50 SI ([1]; Tableau 2, CC50 Thp1 / CI50 axenic amastigotes of L. infantum, listed as miltéfosine): 53,06; Indice de sélectivité CC50/IC50 SI [1, 10]: 76,13 |
| FC(F)(F)Oc1cccc(-n2cc[n+](-c3ccc4ccccc4n3)c2)c1 [compound 18, Chlorurede 3-(Quinolin-2-yl)-1-(3-(trifluoromethoxy)phenyl)-1H-imidazol-3-ium] | – | > 50 | – |
| CC(C)[n+]1ccn(-c2ccc(OC(F)(F)F)cc2)c1 [compound 11, Bromurede 3-Isopropyl-1-(4-(trifluorométhoxy)phényl)-1H-imidazol-3-ium] | – | > 50 | – |
| CC(=O)OCC1OC([S][Au-][c]2n(-c3cc(C(F)(F)F)cc(C(F)(F)F)c3)cc[n+]2C(C)C)C(OC(C)=O)C(OC(C)=O)C1OC(C)=O (centres unmarked) [Complexe 39] | 18,79 | – | – |

| Compound | Indice de sélectivité CC50/IC50 SI [1, 4] | IC50 [1, 5] [µM] | also measured |
| --- | --- | --- | --- |
| CC(C)[n+]1ccn(-c2ccc(F)cc2)c1 [compound 14, Bromurede 1-(4-Fluorophényl)-3-isopropyl-1H-imidazol-3-ium] | – | > 50 | – |
| C[C@@H]1[C@H](O)[C@@H](C)/C=C/C=C/C=C/C=C/C=C/C=C/C=C/[C@H](O[C@@H]2O[C@H](C)[C@@H](O)[C@H](N)[C@@H]2O)C[C@@H]2O[C@](O)(C[C@@H](O)C[C@@H](O)[C@H](O)CC[C@@H](O)C[C@@H](O)CC(=O)O[C@H]1C)C[C@H](O)[C@H]2C(=O)O [Amphotéricine B, reference compound] | 139,87 | – | CC50 (lignée cellulaire Thp1; [7]): 13.1 µM; CC50 (lignée cellulaire Thp1; [8]): 10.5 µM; IC50 [1, 3]: 0.075 µM; IC50 [1, 9]: 0.06 µM; Indice de sélectivité CC50/IC50 SI [1, 10]: 218,83 |
| Fc1ccc(-n2cc[n+](-c3ccc4ccccc4n3)[c]2[Au-][Cl])cc1 [Complexe 34] | 474,17 | – | – |
| FC(F)(F)Oc1cccc(-n2cc[n+](-c3ccc4ccccc4n3)[c]2[Au-][Cl])c1 [Complexe 33] | 129,70 | – | – |
| Fc1ccc(-n2cc[n+](-c3ccc4ccccc4n3)c2)cc1 [compound 19, Chlorurede 1-(4-Fluorophenyl)-3-(quinolin-2-yl)-1H-imidazol-3-ium] | – | > 50 | – |
| CC(=O)OCC1OC([S][Au-][c]2n(-c3ccc(F)cc3)cc[n+]2C(C)C)C(OC(C)=O)C(OC(C)=O)C1OC(C)=O (centres unmarked) [Complexe 40] | 13.43 | – | – |
| CC(C)[n+]1ccn(-c2ccc(C(F)(F)F)cc2)c1 [compound 15, Bromurede 3-Isopropyl-1-(4-(trifluoromethyl)phenyl)-1H-imidazol-3-ium] | – | > 50 | – |
| CSc1ccc(OCc2ncc([N+](=O)[O-])n2C)cc1 [Fexinidazole, reference compound] | >104,41 | 3.4 | CC50 at 72 h [2, 6]: > 355 µM; CC50 at 72 h [2, 8]: > 355 µM; Indice de sélectivité CC50/IC50 SI ([1]; Tableau 2, CC50 Thp1 / CI50 axenic amastigotes of L. infantum, listed as fexinidazole): > 104,41 |
| FC(F)(F)Oc1ccc(-n2cc[n+](Cc3ccccc3)[c]2[Au-][Cl])cc1 [Complexe 21] | 67,85 | – | – |
| CC(=O)OCC1OC([S][Au-][c]2n(-c3cc(C(F)(F)F)cc(C(F)(F)F)c3)cc[n+]2Cc2ccccc2)C(OC(C)=O)C(OC(C)=O)C1OC(C)=O (centres unmarked) [Complexe 37] | 30,63 | – | – |
| CC(C)[n+]1ccn(-c2cccc(OC(F)(F)F)c2)[c]1[Au-][Cl] [Complexe 28] | 178.52 | – | – |
| CC(=O)OCC1OC([S][Au-][c]2n(-c3ccc(OC(F)(F)F)cc3)cc[n+]2Cc2ccccc2)C(OC(C)=O)C(OC(C)=O)C1OC(C)=O (centres unmarked) [Complexe 36] | 53,92 | – | – |
| Fc1ccc(-n2cc[n+](Cc3ccccc3)c2)cc1 [compound 9, Chlorurede 3-Benzyl-1-(4-fluorophenyl)-1H-imidazol-3-ium chloride] | – | > 50 | – |
| FC(F)(F)Oc1ccc(-n2cc[n+](-c3ccc4ccccc4n3)c2)cc1 [compound 16, Chlorurede 3-(Quinolin-2-yl)-1-(4-(trifluoromethoxy)phenyl)-1H-imidazol-3-ium] | – | > 50 | – |
| FC(F)(F)Oc1cccc(-n2cc[n+](Cc3ccccc3)c2)c1 [compound 8, Chlorurede 3-Benzyl-1-(3-(trifluoromethoxy)phenyl)-1H-imidazol-3-ium chloride] | – | > 50 | – |
| CC(C)[n+]1ccn(-c2cccc(OC(F)(F)F)c2)c1 [compound 13, Bromurede 3-Isopropyl-1-(3-(trifluorométhoxy)phényl)-1H-imidazol-3-ium] | – | > 50 | – |
| FC(F)(F)Oc1ccc(-n2cc[n+](Cc3ccccc3)c2)cc1 [compound 6, Chlorurede 3-Benzyl-1-(4-(trifluorométhoxy)phényl)-1H-imidazol-3-ium] | – | > 50 | – |
| CC(C)[n+]1ccn(-c2ccc(F)cc2)[c]1[Au-][Cl] [Complexe 29] | 178,50 | – | – |
